Patent publication US10513521B2, “Compositions and methods for inhibiting BMP” (The Brigham and Women's Hospital, Inc., priority 2014, dated 2019)

Tests used:
ALK1 [1] = target: T1, ALK1 (Bos taurus, UniProt A4FUX2); assay: In-cell Western ALK1 assay (BAOEC cells, BMP9 as agonist); format: cell-based, Bovine; settings: read-out: BMP9 ICW
T1 construct: The BAOEC cell line was employed for the measurement of ALK1 activity using BMP9 as the agonist; host or cells: BAOEC (bovine aortic endothelial cells)
T1 sequence (A4FUX2 23-503): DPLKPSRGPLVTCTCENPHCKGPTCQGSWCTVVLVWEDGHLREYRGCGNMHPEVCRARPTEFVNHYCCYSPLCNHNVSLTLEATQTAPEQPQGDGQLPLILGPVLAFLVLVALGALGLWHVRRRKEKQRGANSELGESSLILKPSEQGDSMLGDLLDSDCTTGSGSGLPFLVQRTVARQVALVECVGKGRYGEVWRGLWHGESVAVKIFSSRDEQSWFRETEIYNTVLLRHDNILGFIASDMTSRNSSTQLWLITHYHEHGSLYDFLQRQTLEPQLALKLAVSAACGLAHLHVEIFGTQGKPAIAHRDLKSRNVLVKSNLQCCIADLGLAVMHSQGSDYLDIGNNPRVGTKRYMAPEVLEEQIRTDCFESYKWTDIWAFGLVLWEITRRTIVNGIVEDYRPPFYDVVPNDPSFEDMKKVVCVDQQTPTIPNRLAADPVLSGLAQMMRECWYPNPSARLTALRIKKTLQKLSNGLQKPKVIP
From the text: 3. In-Cell Western ALK1 and ALK2 Assays in 384-Well Plate Format.
We also optimized cell-based In-cell Western assays for measurements of ALK1 and ALK2 activities that were used to determine compound activities in these two kinases. The cell lines and agonists used were same as described in above cell-based HTRF ALK1 and ALK2 assays. The initial cell plating and compound treatment were also same. The main difference is the detection of phosphorylation status of SMAD1. In t-cell Western assay, the cells were fixed and phosphorylation status of SMAD1 was detected by the ELISA instead of using the HTRF assay kit in above assay.
C2C12 cells and RPMI 1640 medium were obtained from ATCC (Manassas, Va.) and Bovine Aortic endothelial Cells (BAOEC) and epithelial defined growth medium were purchased from Genlantis (San Deigo, Calif.). HyClone Fetal Bovine Serum was obtained from GE healthcare life sciences (Logan, Utah). BMP6 and BMP9 were purchased from R&D System (R&D). Anti-P-SMAD 1/5/8 rabbit mAb and anti-rabbit IgG, HRP-Linked antibody were purchased from Cell Signaling Technology (Danvers, Mass.). BioFX Chemiluminescent Ultra-Sensitive HRP Microwell Substrate ECL Reagent was obtained from SurModics (Edina, Minn.). The compound plates and the white solid MB assay plates were from Greiner Bio-one (Monroe, N.C.).
Similarly as described in above HTRF cell-based assay, this assay was performed in 384 well plate format. C2C12 were grown in T225 flasks were sterilely washed with 1×PBS pre-starved with medium containing 0.1% FBS for 20 hours. Pre-starved cells were then plated in 384 well plate in the starvation medium (containing in 0.1% FBS). After 4 hours, compound dilutions in DMSO were added to the assay plate and incubated for 30 minutes. The assay plate was then added with BMP6 for C2C12 cells or BMP9 for BAOEC cells and incubated for 30 minutes.
Cells were fixed with 50 ul ice-cold methanol and incubated for 15 min after removing the supernatant. The methanol was removed and filled with 0.5% glutaraldehyde and incubated at room temperature for 15 min. The cells were washed in the plate washer with PBS and blocked with 2% BSA in PBS for 1 h at room temperature on the rotator. After removing the blocking reagent, the cells were incubated with the anti-p-SMAD1 antibody in 2% BSA in PBS for overnight at 4° C. on rotator. The cells were washed with PBS in the plate washer and incubated with HRP conjugated second antibody in 2% BSA in PBS for 1 hour at room temperature. After a cell wash with PBS, ECL detection reagent was added and the plate was read in the luminesce mode in the ViewLux plate reader.

ALK1 [2] = target: ALK1 (Homo sapiens, UniProt P37023); assay: TR-FRET enzymatic ALK kinase assay, ALK1
Sequence of ALK1 (Homo sapiens, UniProt P37023) (P37023 22-503): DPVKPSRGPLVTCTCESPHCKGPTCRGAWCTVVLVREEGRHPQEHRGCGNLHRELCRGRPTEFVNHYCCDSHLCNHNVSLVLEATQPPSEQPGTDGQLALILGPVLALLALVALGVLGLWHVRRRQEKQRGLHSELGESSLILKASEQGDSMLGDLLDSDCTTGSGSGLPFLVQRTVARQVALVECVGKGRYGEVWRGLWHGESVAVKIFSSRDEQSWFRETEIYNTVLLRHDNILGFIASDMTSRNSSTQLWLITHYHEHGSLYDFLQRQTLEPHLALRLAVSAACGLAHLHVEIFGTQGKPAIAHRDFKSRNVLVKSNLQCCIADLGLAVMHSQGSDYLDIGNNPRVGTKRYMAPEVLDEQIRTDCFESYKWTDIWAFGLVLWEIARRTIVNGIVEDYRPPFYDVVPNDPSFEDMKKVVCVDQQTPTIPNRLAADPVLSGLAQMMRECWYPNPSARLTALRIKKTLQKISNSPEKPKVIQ
Procedure: (§1) Briefly, the ALKs enzymatic assay was initiated by dispense 2.5 μl enzyme in 1× kinase reaction buffer. The assay plate was then added with compounds followed by incubation at room temperature for 10 minutes. Then 2.5 μl/well substrate was added.

ALK2 = target: T2, ALK2 (Homo sapiens, UniProt Q04771); assay: TR-FRET enzymatic ALK kinase assay, ALK2
T2 sequence (Q04771 21-509): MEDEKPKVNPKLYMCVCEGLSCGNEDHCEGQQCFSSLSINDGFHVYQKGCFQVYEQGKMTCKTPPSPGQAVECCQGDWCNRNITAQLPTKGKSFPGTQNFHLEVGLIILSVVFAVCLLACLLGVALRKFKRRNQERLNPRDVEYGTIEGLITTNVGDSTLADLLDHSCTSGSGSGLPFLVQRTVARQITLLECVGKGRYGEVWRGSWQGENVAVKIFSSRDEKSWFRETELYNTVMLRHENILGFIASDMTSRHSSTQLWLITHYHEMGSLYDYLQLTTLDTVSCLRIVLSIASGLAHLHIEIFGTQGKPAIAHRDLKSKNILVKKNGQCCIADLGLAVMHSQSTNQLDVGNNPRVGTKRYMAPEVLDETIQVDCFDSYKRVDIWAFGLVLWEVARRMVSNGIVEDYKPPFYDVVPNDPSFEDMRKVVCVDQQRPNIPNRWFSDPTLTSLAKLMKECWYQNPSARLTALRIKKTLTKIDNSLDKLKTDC
Procedure: as §1

ALK5 = target: T3, ALK5 (Homo sapiens, UniProt P36897); assay: TR-FRET enzymatic ALK kinase assay, ALK5
T3 sequence (P36897 34-503): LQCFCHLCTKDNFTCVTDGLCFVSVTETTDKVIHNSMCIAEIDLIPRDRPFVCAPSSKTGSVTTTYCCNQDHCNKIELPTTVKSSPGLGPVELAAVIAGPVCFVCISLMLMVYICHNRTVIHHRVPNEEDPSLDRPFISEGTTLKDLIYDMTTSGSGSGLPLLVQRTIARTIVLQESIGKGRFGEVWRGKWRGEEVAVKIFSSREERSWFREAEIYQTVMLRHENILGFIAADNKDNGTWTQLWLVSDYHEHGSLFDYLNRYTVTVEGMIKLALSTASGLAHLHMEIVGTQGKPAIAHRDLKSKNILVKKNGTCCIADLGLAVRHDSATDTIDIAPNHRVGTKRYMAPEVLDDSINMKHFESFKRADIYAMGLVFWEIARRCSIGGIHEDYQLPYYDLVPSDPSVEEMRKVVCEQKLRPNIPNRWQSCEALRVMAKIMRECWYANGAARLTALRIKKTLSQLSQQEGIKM
Procedure: Six ALK kinase enzyme assays were developed for determination of compound activities on ALK1, ALK2, ALK3, ALK4, ALK5 and ALK6.
as §1

ALK6 = ALK6 (Homo sapiens, UniProt O00238); assay: TR-FRET enzymatic ALK kinase assay, ALK6
Sequence of ALK6 (O00238 14-502): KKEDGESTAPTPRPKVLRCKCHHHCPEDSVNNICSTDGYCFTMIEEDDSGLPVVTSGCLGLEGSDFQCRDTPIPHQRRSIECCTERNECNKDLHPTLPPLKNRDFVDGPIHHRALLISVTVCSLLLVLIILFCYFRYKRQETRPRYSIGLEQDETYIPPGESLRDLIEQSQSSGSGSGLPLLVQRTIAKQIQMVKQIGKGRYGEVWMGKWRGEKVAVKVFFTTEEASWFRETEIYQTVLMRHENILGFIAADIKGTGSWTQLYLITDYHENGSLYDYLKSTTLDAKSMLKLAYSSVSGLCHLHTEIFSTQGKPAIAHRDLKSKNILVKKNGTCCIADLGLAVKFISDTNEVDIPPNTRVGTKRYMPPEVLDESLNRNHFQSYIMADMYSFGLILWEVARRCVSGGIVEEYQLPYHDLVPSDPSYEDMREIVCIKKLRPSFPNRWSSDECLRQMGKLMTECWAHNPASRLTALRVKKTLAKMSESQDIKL
Procedure: as §1

CS(=O)(=O)c1cccc(-c2cnn3cc(-c4ccc(OCCN5CCCC5)cc4)cnc23)c1 [Compound 108, 3-(3-(methylsulfonyl)phenyl)-6-(4-(2-(pyrrolidin-1-yl)ethoxy)phenyl)pyrazolo[1,5-a]pyrimidine]
IC50 (ALK1 [1]): 3900 nM | IC50 (ALK1 [2]): 390 nM | IC50 (ALK2): 83 nM | IC50 (ALK5): > 10 µM | IC50 (ALK6): > 10 µM

C[C@@H]1CNC[C@H](C)N1c1ccc(-c2cnc3c(-c4cccc([S+](=O)([O-])C5CC5)c4)cnn3c2)cc1 [Compound 111, 3-(3-(cyclopropylsulfonyl)phenyl)-6-(4-((2R,6S)-2,6-dimethylpiperazin-1-yl)phenyl)pyrazolo[1,5-a]pyrimidine]
IC50 (ALK1 [1]): 1800 nM | IC50 (ALK1 [2]): 120 nM | IC50 (ALK2): 17 nM | IC50 (ALK5): > 10 µM | IC50 (ALK6): > 10 µM

CC1(c2ccc(-c3cnc4c(-c5cccc(S(C)(=O)=O)c5)cnn4c3)cc2)CCNCC1 [Compound 115, 6-(4-(4-methylpiperidin-4-yl)phenyl)-3-(3-(methylsulfonyl)phenyl)pyrazolo[1,5-a]pyrimidine]
IC50 (ALK1 [1]): 1500 nM | IC50 (ALK1 [2]): 110 nM | IC50 (ALK2): 33 nM | IC50 (ALK5): > 10 µM | IC50 (ALK6): 9 µM

C[C@@H]1CNC[C@H](C)N1c1ccc(-c2cnc3c(-c4cccc(C[S+](C)(=O)[O-])c4)cnn3c2)cc1 [Compound 117, 6-(4-((2R,6S)-2,6-dimethylpiperazin-1-yl)phenyl)-3-(3-((methylsulfonyl)methyl)phenyl)pyrazolo[1,5-a]pyrimidine]
IC50 (ALK1 [1]): 2400 nM | IC50 (ALK1 [2]): 200 nM | IC50 (ALK2): 49 nM | IC50 (ALK5): > 10 µM | IC50 (ALK6): 8.7 µM
